Biological target: T1, human PPARα (Homo sapiens, UniProt Q07869)
T1 construct: expressed in transfected cells; host or cells: HEK cells (human embryo kidney), stably transfected with pcDNA3-GR-GAL4-humanPPARα and the luciferase reporter pdeltaMG4LZ
T1 sequence (Q07869 167-468): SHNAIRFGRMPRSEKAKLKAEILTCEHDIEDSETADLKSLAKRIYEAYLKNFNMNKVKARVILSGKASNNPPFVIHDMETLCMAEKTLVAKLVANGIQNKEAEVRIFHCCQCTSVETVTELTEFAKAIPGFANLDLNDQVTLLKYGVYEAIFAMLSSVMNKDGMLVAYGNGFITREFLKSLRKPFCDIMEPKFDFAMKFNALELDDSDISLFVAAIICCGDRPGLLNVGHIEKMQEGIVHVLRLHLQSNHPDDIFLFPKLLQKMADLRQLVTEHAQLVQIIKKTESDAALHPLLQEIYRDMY
Assay: PPARα reporter cell line assay (stably transfected HEK cells, GR-GAL4-PPARα fusion protein, firefly luciferase reporter)
Format: cell-based
Details: agonist activity in HEK PPARα reporter cell line; 24 h incubation; luciferase luminescence
Source text: To analyze the effectiveness of substances which bind to human PPARα, activating it in agonistic manner, a stable transfected HEK cell line (HEK=human embryo kidney) designated here as “PPARα reporter cell line” is used. It contains two genetic elements, a firefly luciferase reporter element and a PPARα fusion protein (GR-GAL4-PPARα) which controls the expression of the firefly luciferase reporter element in a PPARα ligand dependent way.
The PPARα reporter cell line was established in two steps: First, the firefly luciferase reporter element was constructed and stably transfected into HEK cells. Five DNA binding sites for the yeast transcription factor GAL4 (five repetitions of the sequence 5′-CGGAGTACTGTCCTCCGAG-3′) (SEQ ID NO:1) were cloned 5′ upstream of a 68 bp minimal RNA polymerase II promoter from the GR mouse mammary tumor virus long terminal repeat (accession # V01175) providing a CCAAT-box as well as a TATA-element. Cloning and sequencing was done as described by Sambrook J. et. al. (Molecular cloning, Cold Spring Harbor Laboratory Press, 1989). The complete Photinus pyralis luciferase gene (accession # M 15077) was cloned 3′ downstream of the GAL4 binding sites and the MMTV minimal promoter. The firefly luciferase reporter element consisting of 5 GAL4 binding sites, the MMTV minimal promoter and the full length luciferase gene was recloned into a plasmid backbone harboring a Zeozin resistence gene leading to plasmid “pdeltaMG4LZ”. This vector was transfected in HEK cells as described by Ausubel, F. M. et al. (Current protocols in molecular biology, Vol. 1-3, John Wiley & Sons, Inc., 1995). Stable clones have been selected using Zeozin as a selection agent (0.5 mg/ml).
In a second step, the PPARα fusion protein (GR-GAL4-PPARα) that controls expression of the firefly luciferase reporter element, was stably integrated in this cell background. For this purpose the cDNAs coding for the N-terminal 76 amino acids of the human glucocorticoid receptor (“GR”, accession # P04150) have been linked to amino acids 1-147 of the yeast GAL4-protein (accession # P04386) followed by the ligand binding domain of humanPPARα (amino acids S167-Y468, accession # S74349). The GR-GAL4-human PPARα construct was cloned into plasmid pcDNA3 (Invitrogen) were its expression is driven constitutively by the Cytomegalovirus promoter. The plasmid pcDNA3-GR-GAL4-humanPPARα was transfected in a stable HEK-cell clone that already contained the firefly luciferase reporter element described above. A double-transfected cell line containing both, the firefly luciferase reporter element as well as the GR-GAL4-humanPPARα fusion protein, has been selected on medium supplemented with Zeozin (0.5 mg/ml) and G418 (0.5 mg/ml).
The activity of PPARα agonists is determined in a three day test, described below:
The PPARα reporter cell line is cultivated up to 80% confluence in DMEM medium (# 41965-039, Life Technologies) with the following additives: 10% cs-FCS (fetal calf serum, #SH-30068.03, Hyclone), antibiotics (0.5 mg/ml of zeozin [#R250-01, Invitrogen], 0.5 mg/ml of G418 [#10131-019, Life Technologies], 1% penicillin streptomycin solution [#15140-031, Life Technologies]) and 2 mM of L-glutamine (#25030-032, Life Technologies). Cultivation is carried out in standard cell culture bottles (# 33111, Becton Dickinson) in a cell culture incubator at 37° C. and 5% CO2. The 80% confluent cells are washed once with 30 ml of PBS (#14190-094, Life Technologies), treated with 2 ml of trypsin solution (#25300-054, Life Technologies) at 37° C. for 2 min, taken up in 5 ml of the medium described above and counted in a cell counter. After dilution to 500,000 cells/ml, in each case 35,000 cells are sown into each well of a 96-well microtiter plate having a clear plastic bottom (#3610, Coming Costar). The plates are incubated in a cell incubator at 37° C. and 5% CO2 for 24 h.
The PPARα agonists to be tested are dissolved in DMSO at a concentration of 10 mM. […]

Q: For `COc1ccc(-c2nc(CO[C@H]3CCC[C@@H](OCc4cccc(C)c4C(=O)O)C3)c(C)o2)cc1OC` [LVIII, 2-{1R,3S-3-[2-(3,4-Dimethoxyphenyl)-5-methyloxazol-4-ylmethoxy]cyclohexyloxymethyl}-6-methylbenzoic acid], which EC50 is on record?
A: 0.46 nM

Q: With `Cc1cccc(CO[C@H]2CCC[C@@H](OCc3coc(-c4ccccc4)n3)C2)c1C(=O)O` (single isomer, unassigned) [VI, cis-2-Methyl-6-[3-(2-phenyloxazol-4-ylmethoxy)cyclohexyloxymethyl]benzoic acid] as the compound, how does the EC50 read?
A: 0.18 nM

Q: How did the EC50 turn out when `COc1ccc(-c2nc(CO[C@H]3CCC[C@@H](OCc4cccc(C)c4C(=O)O)C3)c(C)o2)cc1C` [LXXII, 2-[(1R,3S)-3-(2-(4-methoxy-3-methylphenyl)-5-methyl-oxazol-4-ylmethoxy)-cyclohexyloxymethyl]-6-methyl-benzoic acid] was run?
A: 0.24 nM

Q: `Cc1cccc(CO[C@@H]2CCC[C@H](OCc3nc(-c4cccc(C#N)c4)oc3C)C2)c1C(=O)O` [LIX, 2-{1R,3S-3-[2-(3-Cyanophenyl)-5-methyloxazol-4-ylmethoxy]cyclohexyloxymethyl}-6-methylbenzoic acid] was tested. Which EC50 did it give?
A: 0.62 nM

Q: Which EC50 does the source give for `Cc1cccc(CO[C@@H]2CCC[C@H](OCc3nc(-c4ccccc4)oc3C)C2)c1C(=O)O` [Example LX, 2-Methyl-6-[1R,3S-3-(5-methyl-2-phenyloxazol-4-ylmethoxy)cyclohexyloxymethyl]benzoic acid] here?
A: 0.2 nM

Q: With `Cc1ccc(-c2nc(CO[C@H]3CCC[C@@H](OCc4cccc(C)c4C(=O)O)C3)c(C)o2)c(C)c1` [LV, 2-{1R,3S-3-[2-(2,4-Dimethylphenyl)-5-methyloxazol-4-ylmethoxy]cyclohexyloxymethyl}-6-methylbenzoic acid] as the compound, how does the EC50 read?
A: 0.09 nM

Q: Which EC50 does the source give for `Cc1ccc(-c2nc(CO[C@@H]3CCC[C@H](OCc4cccc(C)c4C(=O)O)C3)co2)cc1` (stereo in doubt) [VII, cis-2-Methyl-6-[3-(2-p-tolyloxazol-4-ylmethoxy)cyclohexyloxymethyl]benzoic acid] here?
A: 4 nM

Q: `Cc1cccc(CO[C@@H]2CCC[C@H](COCc3coc(-c4ccc(F)cc4)n3)C2)c1C(=O)O` (racemic) [Example XXIV, rac-cis-2-{3-[2-(4-Fluorophenyl)oxazol-4-ylmethoxymethyl]cyclohexyloxymethyl}-6-methylbenzoic acid] was tested. Which EC50 did it give?
A: 0.9 nM

Q: How did the EC50 turn out when `Cc1cccc(CO[C@@H]2CCC[C@H](OCc3coc(-c4ccc(F)cc4)n3)C2)c1C(=O)O` (relative stereo) [Example II, (+)-cis-2-(3-(2-(4-Fluorophenyl)oxazol-4-ylmethoxy)cyclohexyloxymethyl)-6-methylbenzoic acid] was run?
A: 0.3 nM

Q: How did the EC50 turn out when `Cc1cccc(CO[C@H]2CCC[C@@H](OCc3nc(-c4ccc(F)cc4)oc3C)C2)c1C(=O)O` (stereo in doubt) [Example X, cis-2-{3-[2-(4-Fluorophenyl)-5-methyloxazol-4-ylmethoxy]cyclohexyloxymethyl}-6-methylbenzoic acid] was run?
A: 0.5 nM

Q: With `COc1ccc(-c2nc(CO[C@@H]3CCC[C@H](OCc4cccc(C)c4C(=O)O)C3)c(C)o2)cc1` [LXV, 2-{1S,3R-3-[2-(4-Methoxyphenyl)-5-methyloxazol-4-ylmethoxy]cyclohexyloxymethyl}-6-methylbenzoic acid] as the compound, how does the EC50 read?
A: 1.1 nM

Q: Which EC50 does the source give for `Cc1cccc(CO[C@@H]2CCC[C@H](OCc3nc(-c4ccc(Cl)cc4)oc3C)C2)c1C(=O)O` [LII, 2-{1R,3S-3-[2-(4-Chlorophenyl)-5-methyloxazol-4-ylmethoxy]cyclohexyloxymethyl}-6-methylbenzoic acid] here?
A: 0.1 nM

Q: Which EC50 does the source give for `Cc1cccc(CO[C@H]2CCC[C@@H](OCc3nc(-c4ccccc4)oc3C)C2)c1C(=O)O` [Example LXI, 2-Methyl-6-[1S,3R-3-(5-methyl-2-phenyloxazol-4-ylmethoxy)cyclohexyloxymethyl]benzoic acid] here?
A: 10 nM

Q: How did the EC50 turn out when `Cc1cccc(CC[C@@H]2CCC[C@H](OCc3coc(-c4ccc(F)cc4)n3)C2)c1C(=O)O` (racemic) [XXVIII, rac-cis-2-(2-{3-[2-(4-Fluorophenyl)oxazol-4-ylmethoxy]cyclohexyl}ethyl)-6-methylbenzoic acid] was run?
A: 0.67 nM

Q: How did the EC50 turn out when `Cc1ccc(-c2nc(CO[C@@H]3CCC[C@H](OCc4cccc(C)c4C(=O)O)C3)c(C)o2)cc1` [LXIII, 2-Methyl-6-[1S,3R-3-(5-methyl-2-p-tolyloxazol-4-ylmethoxy)cyclohexyloxymethyl]benzoic acid] was run?
A: 0.56 nM

Q: With `Cc1cccc(-c2nc(CO[C@H]3CCC[C@@H](OCc4cccc(C)c4C(=O)O)C3)c(C)o2)c1` [LIII, 2-{1R,3S-3-[2-(3-Methylphenyl)-5-methyloxazol-4-ylmethoxy]cyclohexyloxymethyl}-6-methylbenzoic acid] as the compound, how does the EC50 read?
A: 0.4 nM

Q: Which EC50 does the source give for `COc1ccc(-c2nc(CO[C@H]3CCC[C@@H](OCc4cccc(C)c4C(=O)O)C3)c(C)o2)cc1` [LXIV, 2-{1R,3S-3-[2-(4-Methoxyphenyl)-5-methyloxazol-4-ylmethoxy]cyclohexyloxymethyl}-6-methylbenzoic acid] here?
A: 0.13 nM

Q: For `Cc1ccc(-c2nc(CO[C@H]3CCC[C@@H](OCc4cccc(C)c4C(=O)O)C3)co2)cc1` (stereo in doubt) [VIII, cis-2-Methyl-6-[3-(2-p-tolyloxazol-4-ylmethoxy)cyclohexyloxymethyl]benzoic acid], which EC50 is on record?
A: 0.04 nM

Q: How did the EC50 turn out when `Cc1ccc(-c2nc(CO[C@H]3CCC[C@@H](OCc4cccc(C)c4C(=O)O)C3)c(C)o2)cc1C` [LIV, 2-{1R,3S-3-[2-(3,4-Dimethylphenyl)-5-methyloxazol-4-ylmethoxy]cyclohexyloxymethyl}-6-methylbenzoic acid] was run?
A: 0.08 nM

Q: `Cc1cccc(CO[C@@H]2CCC[C@H](OCc3nc(-c4cccc(Cl)c4)oc3C)C2)c1C(=O)O` [LI, 2-{1R,3S-3-[2-(3-Chlorophenyl)-5-methyloxazol-4-ylmethoxy]cyclohexyloxymethyl}-6-methylbenzoic acid] was tested. Which EC50 did it give?
A: 0.31 nM

Q: For `Cc1cccc(CO[C@@H]2CCC[C@H](OCc3nc(-c4cccc(F)c4)oc3C)C2)c1C(=O)O` [XLVIII, 2-{1R,3S-3-[2-(3-Fluoro-phenyl)-5-methyl-oxazol-4-ylmethoxyl]-cyclohexyloxymethyl}-6-methylbenzoic acid], which EC50 is on record?
A: 0.25 nM

Q: `COc1ccc(-c2nc(CO[C@H]3CCC[C@@H](OCc4cccc(C)c4C(=O)O)C3)co2)cc1` (relative stereo) [IV, cis-2-(3-(2-(4-Methoxyphenyl)oxazol-4-ylmethoxy)cyclohexyloxymethyl)-6-methylbenzoic acid] was tested. Which EC50 did it give?
A: 0.3 nM

Q: With `Cc1ccc(-c2nc(CO[C@H]3CCC[C@@H](OCc4cccc(C)c4C(=O)O)C3)c(C)o2)cc1` [LXII, 2-Methyl-6-[1R,3S-3-(5-methyl-2-p-tolyloxazol-4-ylmethoxy)cyclohexyloxymethyl]benzoic acid] as the compound, how does the EC50 read?
A: 0.08 nM

Q: Which EC50 does the source give for `Cc1cccc(COC2C=CC(OCc3coc(-c4ccc(F)cc4)n3)C2)c1C(=O)O` (stereo not drawn) [XIX, 2-{4-[2-(4-Fluorophenyl)oxazol-4-ylmethoxy]cyclopent-2-enyloxymethyl}-6-methylbenzoic acid] here?
A: 16 nM

Reference: patent US7399777B2, “Diarylcycloalkyl derivatives, processes for their preparation and their use as pharmceuticals” (Sanofi-Aventis Deutschland GmbH, priority 2001, dated 2008)
